Common to all, as to type: biochemical
In one test the target is T1, LATS1 (Homo sapiens, UniProt O95835).
T1 sequence (O95835 1-1130): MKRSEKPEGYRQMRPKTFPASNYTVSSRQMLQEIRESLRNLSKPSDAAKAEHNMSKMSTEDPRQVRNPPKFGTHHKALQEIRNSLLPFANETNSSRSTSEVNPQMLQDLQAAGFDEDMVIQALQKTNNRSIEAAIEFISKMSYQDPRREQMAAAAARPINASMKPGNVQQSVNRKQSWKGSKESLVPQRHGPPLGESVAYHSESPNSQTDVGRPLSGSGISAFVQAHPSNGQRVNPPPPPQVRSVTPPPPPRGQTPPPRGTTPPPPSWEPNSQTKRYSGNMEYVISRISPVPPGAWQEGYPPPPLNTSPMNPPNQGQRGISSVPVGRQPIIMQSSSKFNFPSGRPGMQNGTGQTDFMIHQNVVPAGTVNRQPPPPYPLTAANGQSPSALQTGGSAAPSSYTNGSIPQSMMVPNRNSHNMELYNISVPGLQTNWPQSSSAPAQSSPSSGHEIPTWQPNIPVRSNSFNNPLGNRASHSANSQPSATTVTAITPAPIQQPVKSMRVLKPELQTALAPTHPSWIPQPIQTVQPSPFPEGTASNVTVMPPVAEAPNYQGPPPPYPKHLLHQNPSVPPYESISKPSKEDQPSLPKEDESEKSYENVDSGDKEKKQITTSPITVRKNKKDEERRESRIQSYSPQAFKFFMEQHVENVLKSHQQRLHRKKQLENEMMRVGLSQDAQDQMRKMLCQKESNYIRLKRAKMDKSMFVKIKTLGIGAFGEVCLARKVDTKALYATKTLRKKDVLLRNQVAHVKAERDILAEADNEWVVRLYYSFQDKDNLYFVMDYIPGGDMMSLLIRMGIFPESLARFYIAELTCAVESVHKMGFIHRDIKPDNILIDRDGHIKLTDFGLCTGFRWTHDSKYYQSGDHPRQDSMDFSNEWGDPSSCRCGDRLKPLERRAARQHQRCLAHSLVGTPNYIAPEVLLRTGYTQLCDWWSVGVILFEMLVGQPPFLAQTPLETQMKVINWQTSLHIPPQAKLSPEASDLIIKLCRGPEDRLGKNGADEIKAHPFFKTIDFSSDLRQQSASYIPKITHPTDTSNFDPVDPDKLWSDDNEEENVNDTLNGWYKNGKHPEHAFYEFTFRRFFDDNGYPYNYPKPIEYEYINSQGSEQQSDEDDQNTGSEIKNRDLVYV
As to the kind of experiment: RBC HotSpot kinase assay (33P-ATP, P81 filter-binding), LATS1. Conditions: Table 28, biochemical kinase assay; read-out: LATS1 IC50. Put shortly: (§1)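 Kinase in Hepes pH 7.5 buffer with Mg2+, EGTA, Brij35, BSA, vanadate, DTT and 1% DMSO, plus required cofactors and substrate, was preincubated 20 min at room temperature with compound. Reaction was started with 33P-ATP and run 2 h, then detected by P81 filter binding. IC50 (nM) came from 10-point singlet curves.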

Another test deals with T2, LATS2 (Homo sapiens, UniProt Q9NRM7).
T2 sequence (Q9NRM7 1-1088): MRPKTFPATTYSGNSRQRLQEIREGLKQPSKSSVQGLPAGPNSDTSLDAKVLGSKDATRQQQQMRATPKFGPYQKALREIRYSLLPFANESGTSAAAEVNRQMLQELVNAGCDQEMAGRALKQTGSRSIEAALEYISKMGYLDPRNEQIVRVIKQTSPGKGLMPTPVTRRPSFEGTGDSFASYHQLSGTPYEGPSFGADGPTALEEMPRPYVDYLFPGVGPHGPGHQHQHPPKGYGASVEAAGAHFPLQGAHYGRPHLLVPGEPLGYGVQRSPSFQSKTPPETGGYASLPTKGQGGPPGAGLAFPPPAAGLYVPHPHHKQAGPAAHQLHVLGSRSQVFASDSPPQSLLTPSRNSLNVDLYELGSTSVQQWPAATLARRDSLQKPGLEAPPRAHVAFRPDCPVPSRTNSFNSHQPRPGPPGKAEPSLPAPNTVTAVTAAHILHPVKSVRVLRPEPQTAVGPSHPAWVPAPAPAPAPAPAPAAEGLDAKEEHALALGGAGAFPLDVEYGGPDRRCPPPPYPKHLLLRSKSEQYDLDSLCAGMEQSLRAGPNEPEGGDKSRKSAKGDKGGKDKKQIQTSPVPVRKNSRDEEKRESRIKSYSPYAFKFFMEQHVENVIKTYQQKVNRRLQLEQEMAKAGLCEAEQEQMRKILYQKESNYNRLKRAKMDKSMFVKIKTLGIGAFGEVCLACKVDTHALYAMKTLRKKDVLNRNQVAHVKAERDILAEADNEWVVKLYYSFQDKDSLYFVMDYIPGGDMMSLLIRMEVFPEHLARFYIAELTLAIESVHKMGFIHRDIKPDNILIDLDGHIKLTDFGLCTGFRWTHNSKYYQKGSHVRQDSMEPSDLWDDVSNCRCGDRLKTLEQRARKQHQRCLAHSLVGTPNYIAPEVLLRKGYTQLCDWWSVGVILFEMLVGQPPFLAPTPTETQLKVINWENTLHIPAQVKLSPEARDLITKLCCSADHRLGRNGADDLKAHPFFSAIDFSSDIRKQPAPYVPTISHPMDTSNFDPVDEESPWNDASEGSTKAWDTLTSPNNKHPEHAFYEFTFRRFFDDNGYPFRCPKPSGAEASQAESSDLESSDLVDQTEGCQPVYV
As to the kind of experiment: RBC HotSpot kinase assay (33P-ATP, P81 filter-binding), LATS2. Conditions: Table 28, biochemical kinase assay; read-out: LATS2 IC50. Put shortly: as §1

The next test deals with AKT (Homo sapiens, UniProt P31749). As to the kind of experiment: RBC HotSpot kinase assay (33P-ATP, P81 filter-binding), AKT. As to conditions: Table 28, biochemical kinase assay; read-out: AKT IC50. The gist of the method:
as §1

Sequence of AKT (P31749 whole entry): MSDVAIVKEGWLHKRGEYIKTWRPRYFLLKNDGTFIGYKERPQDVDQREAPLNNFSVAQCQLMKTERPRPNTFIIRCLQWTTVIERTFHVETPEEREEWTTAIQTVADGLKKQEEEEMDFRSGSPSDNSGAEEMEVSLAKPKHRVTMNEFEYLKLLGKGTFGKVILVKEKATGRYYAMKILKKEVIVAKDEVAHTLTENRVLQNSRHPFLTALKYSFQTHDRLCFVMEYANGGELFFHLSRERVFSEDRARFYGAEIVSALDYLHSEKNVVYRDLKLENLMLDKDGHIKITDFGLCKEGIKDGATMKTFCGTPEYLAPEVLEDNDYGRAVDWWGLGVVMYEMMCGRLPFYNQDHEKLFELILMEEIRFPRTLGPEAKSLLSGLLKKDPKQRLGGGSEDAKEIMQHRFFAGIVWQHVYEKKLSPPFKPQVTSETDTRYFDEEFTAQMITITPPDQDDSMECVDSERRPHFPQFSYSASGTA

The IC50 is the point on the concentration scale where inhibition reaches its midpoint. Take `COCCN1CCC(c2ccc(-c3ccnc4[nH]cc(F)c34)cc2Cl)CC1` [Compound 158, 4-(3-chloro-4-(1-(2-methoxyethyl)piperidin-4-yl)phenyl)-3-fluoro-1H-pyrrolo[2,3-b]pyridine]: the IC50 on LATS1 was determined as 29 nM; on LATS2 it was 56 nM; on AKT it was 1150 nM.
As for `CN(C)CCS(=O)(=O)N1CCC(c2ccc(-c3ccnc4[nH]cc(F)c34)cc2Cl)CC1` [Compound 159, 2-((4-(2-chloro-4-(3-fluoro-1H-pyrrolo[2,3-b]pyridin-4-yl)phenyl)piperidin-1-yl)sulfonyl)-N,N-dimethylethan-1-amine], the IC50 at LATS1 amounted to 174 nM; on LATS2, 139 nM; at AKT, 8520 nM.
Consider `O=C(C1CC1)N1CCC(c2ccc(-c3ccnc4[nH]cc(F)c34)cc2Cl)CC1` [Compound 160, (4-(2-chloro-4-(3-fluoro-1H-pyrrolo[2,3-b]pyridin-4-yl)phenyl)piperidin-1-yl)(cyclopropyl)methanone], for which the IC50 on LATS1 was 451 nM; at LATS2 it was 442 nM; on AKT, greater than 10000 nM.
For `Clc1cc(-c2ccnc3[nH]ccc23)ccc1C1CCNCC1` [Compound 161, 4-(3-chloro-4-(piperidin-4-yl)phenyl)-1H-pyrrolo[2,3-b]pyridine], the IC50 on LATS1 came to 8.9 nM; at LATS2, 21 nM; on AKT, 753 nM.
`C[Si](C)(C)CCS(=O)(=O)N1CCC(c2ccc(-c3ccnc4[nH]cc(F)c34)cc2Cl)CC1` [Compound 162, 4-(3-chloro-4-(1-((2-(trimethylsilyl)ethyl)sulfonyl)piperidin-4-yl)phenyl)-3-fluoro-1H-pyrrolo[2,3-b]pyridine]: the IC50 on LATS1, on LATS2 and at AKT was greater than 10000 nM in each case.
Turning to `O=S(=O)(CCC1CC1)N1CCC(c2ccc(-c3ccnc4[nH]cc(F)c34)cc2Cl)CC1` [Compound 163, 4-(3-chloro-4-(1-((2-cyclopropylethyl)sulfonyl)piperidin-4-yl)phenyl)-3-fluoro-1H-pyrrolo[2,3-b]pyridine], the IC50 at LATS1, at LATS2 and on AKT was greater than 10000 nM throughout.
For the compound `CCOCCS(=O)(=O)N1CCC(c2ccc(-c3ccnc4[nH]cc(F)c34)cc2Cl)CC1` [Compound 164, 4-(3-chloro-4-(1-((2-ethoxyethyl)sulfonyl)piperidin-4-yl)phenyl)-3-fluoro-1H-pyrrolo[2,3-b]pyridine], the IC50 on LATS1, on LATS2 and on AKT was greater than 10000 nM in each case.
With `O=C([C@H]1CCCN1)N1CCC(c2ccc(-c3ccnc4[nH]cc(F)c34)cc2Cl)CC1` [Compound 165, (R)-4-(3-chloro-4-(1-prolylpiperidin-4-yl)phenyl)-3-fluoro-1H-pyrrolo[2,3-b]pyridine], the IC50 at LATS1 is 32.1 nM; at LATS2, 36.9 nM; at AKT it was 1510 nM.
In the case of `O=C([C@@H]1CCCN1)N1CCC(c2ccc(-c3ccnc4[nH]cc(F)c34)cc2Cl)CC1` [Compound 166, (S)-4-(3-chloro-4-(1-prolylpiperidin-4-yl)phenyl)-3-fluoro-1H-pyrrolo[2,3-b]pyridine], the IC50 came out at 10.7 nM at LATS1, 15.5 nM on LATS2 and 1300 nM at AKT.
`CN1CCC(c2ccc(-c3ccnc4[nH]cc(F)c34)cc2Cl)CC1` [Compound 167, 4-(3-chloro-4-(1-methylpiperidin-4-yl)phenyl)-3-fluoro-1H-pyrrolo[2,3-b]pyridine]: the values for the IC50 on LATS1, at LATS2 and at AKT were 18 nM, 31 nM and 1520 nM, respectively.
As for `CC(C)(C)OC(=O)N1CCC(c2ccc(-c3ccnc4[nH]cc(F)c34)cc2Cl)CC1` [Compound 170, tert-butyl 4-(2-chloro-4-(3-fluoro-1H-pyrrolo[2,3-b]pyridin-4-yl)phenyl)piperidine-1-carboxylate], the IC50 on LATS1, on LATS2 and on AKT was greater than 10000 nM throughout.
`CC(=O)N1CCC(c2ccc(-c3ccnc4[nH]cc(F)c34)cc2Cl)CC1` [Compound 171, 1-(4-(2-chloro-4-(3-fluoro-1H-pyrrolo[2,3-b]pyridin-4-yl)phenyl)piperidin-1-yl)ethan-1-one]: the values for the IC50 on LATS1, at LATS2 and on AKT were 69 nM, 100 nM and 5400 nM, respectively.
`N#Cc1cc(C2CCNCC2)ccc1-c1ccnc2[nH]ccc12` [Compound 174, 5-(piperidin-4-yl)-2-(1H-pyrrolo[2,3-b]pyridin-4-yl)benzonitrile]: the IC50 stood at 4930 nM at LATS1, 2410 nM on LATS2 and 9000 nM at AKT.
The matching figures for `c1cc(-c2ccc(C3CCNCC3)cn2)c2cc[nH]c2n1` [Compound 175, 4-(5-(piperidin-4-yl)pyridin-2-yl)-1H-pyrrolo[2,3-b]pyridine]: 56 nM, 142 nM and 7000 nM.
As for `Cc1cc(C2CCNCC2)ccc1-c1ccnc2[nH]ccc12` [Compound 176, 4-(2-methyl-4-(piperidin-4-yl)phenyl)-1H-pyrrolo[2,3-b]pyridine], the values for the IC50 at LATS1, on LATS2 and on AKT were 1100 nM, 2140 nM and greater than 10000 nM, respectively.
For `c1cc(-c2ccc(C3CCNCC3)nc2)c2cc[nH]c2n1` [Compound 178, 4-(6-(piperidin-4-yl)pyridin-3-yl)-1H-pyrrolo[2,3-b]pyridine], in that order: 63 nM, 71 nM and 640 nM.
The matching figures for `COc1cc(C2CCNCC2)ccc1-c1ccnc2[nH]ccc12` [Compound 179, 4-(2-methoxy-4-(piperidin-4-yl)phenyl)-1H-pyrrolo[2,3-b]pyridine]: 1080 nM, 1290 nM and 5660 nM.
Regarding `COc1cc(-c2ccnc3[nH]ccc23)ccc1C1CCNCC1` [Compound 180, 4-(3-methoxy-4-(piperidin-4-yl)phenyl)-1H-pyrrolo[2,3-b]pyridine], the figures for the IC50 at LATS1, on LATS2 and on AKT were 69 nM, 84 nM and 2570 nM, respectively.
Consider `Fc1cc(C2CCNCC2)ccc1-c1ccnc2[nH]ccc12` [Compound 181, 4-(2-fluoro-4-(piperidin-4-yl)phenyl)-1H-pyrrolo[2,3-b]pyridine], for which the figures for the IC50 at LATS1, on LATS2 and on AKT were 68 nM, 87 nM and 3360 nM, respectively.
